As a reminder, the LD50 is the dose at which mortality reaches 50%.

Series [1] is described as follows: acute oral toxicity (LD50) in mice. The settings on record: mouse, in vivo, mice (NRM1). The text has this: (§1) The sustained-release oral preparation of the present invention is low in toxic potential and can be administered safely to mammals (e.g. cat, bovine, dog, horse, goat, monkey, human) requiring the treatment or prophylaxis of diabetes or inhibition of postprandial hyperglycemia. Particularly, the valiolamine derivative for use in the present invention, for example [2-hydroxy-1-(hydroxymethyl)ethyl]valiolamine (voglibose), is very high in safety rating with the acute oral toxicity (LD50) values in mice (NRM1) and rats (Wistar) being 14.7 ∼ 21.5 grams/kilogram body weight (mice) and about 20 grams/kilogram body weight (rats), respectively.

The nature of series [2]: acute oral toxicity (LD50) in rats. Conditions: rat, in vivo, rats (Wistar).
From the text: as §1

With `OCC(CO)N[C@H]1C[C@](O)(CO)[C@@H](O)[C@H](O)[C@H]1O` [voglibose, 1L(1S)-(1(OH)2,3,5/1,3)-5-[[2-hydroxy-1-(hydroxymethyl)ethyl]amino]-1-C-(hydroxymethyl)-1,2,3,4-cyclohexanetetrol], the LD50 in series [1] is 14700 to 21500 mg/kg; in series [2], approximately 20000 mg/kg.

These data come from patent EP1022028A1, “SUSTAINED-RELEASE ORAL PREPARATION” (Takeda Chemical Industries, Ltd., priority 1997, dated 1999).
